In assay [1] the target is Glutamate receptor 2 (Rattus norvegicus, UniProt P19491). The assay is described as follows: Displacement of [3H]AMPA from rat iGluR2 receptor expressed in Sf9 cells baculovirus system after 1 to 2 hrs by liquid scintillation counting. A general note: Displacement assays read how much labelled ligand stays bound in the presence of the test substance.
Assay [2] has as its target Glutamate receptor ionotropic, kainate 1 (Rattus norvegicus, UniProt P22756). The assay is described as follows: biochemical.
Description: Displacement of [3H]SYM2081 from rat iGluR5 receptor expressed in Sf9 cells baculovirus system after 1 to 2 hrs by liquid scintillation counting
Assay [3] can be described thus: Displacement of [3H]AMPA from AMPA receptor in Sprague-Dawley rat brain membranes. Type of assay: cell membranes, Membrane.
The target of assay [4] is Glutamate receptor 2 (Homo sapiens, UniProt P42262). The assay is described as follows: Activity at recombinant iGluR2 receptor expressed in Xenopus laevis oocytes using holding potential of -15 to -20 mV by TEVC electrophysiology. Type of assay: cell-based, Oocyte.
Assay [5] addresses Glutamate receptor ionotropic, kainate 2 (Rattus norvegicus, UniProt P42260). The assay is described as follows: Displacement of [3H]SYM2081 from rat iGluR6 receptor expressed in Sf9 cells baculovirus system after 1 to 2 hrs by liquid scintillation counting.
The target in assay [6] is Glutamate NMDA receptor. The assay is described as follows: Displacement of [3H]CGP39653 from NMDA receptor in Sprague-Dawley rat brain membranes. Type of assay: cell membranes, Membrane.
Assay [7] has as its target T1, Glutamate NMDA receptor; Grin1/Grin2a (Rattus norvegicus, UniProt P35439+Q00959). As to the kind of experiment: Antagonist activity at rat NR1/NR2A receptor expressed in BHK21 cells assessed as inhibition of (S)-Glu-induced intracellular calcium levels by FLIPR assay. Type of assay: functional, cell-based, BHK-21. A general note: Calcium flux is commonly read through the fluorescence of an indicator in the cells.

Assay [8] addresses Glutamate receptor ionotropic, kainate 3 (Rattus norvegicus, UniProt P42264). The assay is described as follows: Displacement of [3H]SYM2081 from rat iGluR7 receptor expressed in Sf9 cells baculovirus system after 1 to 2 hrs by liquid scintillation counting.
Assay [9] deals with T1, Glutamate NMDA receptor; Grin1/Grin2a. The assay is described as follows: Agonist activity at rat NR1/NR2A receptor expressed in BHK21 cells assessed as change in intracellular calcium levels at 1000 uM by FLIPR assay. Format: functional, cell-based. The conditions noted are these: bhk-21.
Assay [10] has as its target Glutamate NMDA receptor. The assay is described as follows: Displacement of [3H]CPP from NMDA receptor in Sprague-Dawley rat brain membranes. Format: cell membranes, Membrane.
Assay [11] has as its target T2, Glutamate NMDA receptor; Grin1/Grin2a (Rattus norvegicus) (UniProt P35439+Q00959). The assay is described as follows: Agonist activity at rat NR1/NR2A receptor expressed in BHK21 cells assessed as change in intracellular calcium levels by FLIPR assay relative to (S)-Glu. Type of assay: functional, cell-based. Conditions: BHK-21.
For assay [12], the target named is T2, Glutamate NMDA receptor; Grin1/Grin2a (Rattus norvegicus). As to the kind of experiment: Agonist activity at rat NR1/NR2A receptor expressed in BHK21 cells assessed as increase in intracellular calcium levels by FLIPR assay. The conditions noted are these: BHK-21.
Assay [13] concerns the target T1, Glutamate NMDA receptor; Grin1/Grin2a. As to the kind of experiment: Agonist activity at rat NR1/NR2A receptor expressed in BHK21 cells assessed as change in intracellular calcium levels by FLIPR assay. Type of assay: functional, cell-based, BHK-21.

These results are taken from ChEMBL document CHEMBL1157748, “4-hydroxy-1,2,5-oxadiazol-3-yl moiety as bioisoster of the carboxy function. Synthesis, ionization constants, and molecular pharmacological characterization at ionotropic glutamate receptors of compounds related to glutamate and its homologues” (J Med Chem, 2010).

Usually Ki stands for a measure of affinity in units of concentration, obtained from inhibition or displacement. High values mean a looser hold on the target, low ones a stronger hold on the target. For orientation: IC50 means the point on the concentration scale where inhibition reaches its midpoint. By pIC50 is commonly meant the IC50 on a negative log10 scale, so that one unit is a factor of ten. Read a high pIC50 as a low IC50. As a reminder, the EC50 is the concentration needed to bring the measured effect to its halfway point.

The source made the active and inactive calls. The calls are words filed in the database; no cut-off is given here.

Glutamate receptor 2 (Rattus norvegicus, UniProt P19491), sequence (P19491 whole entry): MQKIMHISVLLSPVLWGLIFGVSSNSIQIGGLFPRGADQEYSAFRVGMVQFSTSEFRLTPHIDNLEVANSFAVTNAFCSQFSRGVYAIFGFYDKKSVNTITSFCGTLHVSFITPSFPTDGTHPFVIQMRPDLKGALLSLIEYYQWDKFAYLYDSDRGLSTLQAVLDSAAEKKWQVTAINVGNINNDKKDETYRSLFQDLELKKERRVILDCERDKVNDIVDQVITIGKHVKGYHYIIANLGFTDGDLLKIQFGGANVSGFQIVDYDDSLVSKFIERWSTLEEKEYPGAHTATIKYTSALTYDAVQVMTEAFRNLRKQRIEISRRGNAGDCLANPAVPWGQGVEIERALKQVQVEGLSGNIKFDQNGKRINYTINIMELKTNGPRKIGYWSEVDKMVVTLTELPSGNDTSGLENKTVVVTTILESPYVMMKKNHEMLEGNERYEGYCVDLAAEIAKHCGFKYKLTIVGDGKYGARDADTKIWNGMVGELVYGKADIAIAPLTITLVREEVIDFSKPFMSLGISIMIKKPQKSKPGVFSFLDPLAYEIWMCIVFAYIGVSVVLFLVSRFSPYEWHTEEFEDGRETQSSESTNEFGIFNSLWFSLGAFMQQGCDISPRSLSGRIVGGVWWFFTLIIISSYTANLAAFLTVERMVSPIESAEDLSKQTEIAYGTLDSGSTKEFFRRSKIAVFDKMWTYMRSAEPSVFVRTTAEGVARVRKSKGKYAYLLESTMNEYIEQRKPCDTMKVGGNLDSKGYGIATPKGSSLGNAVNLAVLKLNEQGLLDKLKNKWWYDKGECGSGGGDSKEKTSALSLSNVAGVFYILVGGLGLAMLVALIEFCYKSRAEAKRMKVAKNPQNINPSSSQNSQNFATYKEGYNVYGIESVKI
Glutamate receptor ionotropic, kainate 2, sequence (P42260 whole entry): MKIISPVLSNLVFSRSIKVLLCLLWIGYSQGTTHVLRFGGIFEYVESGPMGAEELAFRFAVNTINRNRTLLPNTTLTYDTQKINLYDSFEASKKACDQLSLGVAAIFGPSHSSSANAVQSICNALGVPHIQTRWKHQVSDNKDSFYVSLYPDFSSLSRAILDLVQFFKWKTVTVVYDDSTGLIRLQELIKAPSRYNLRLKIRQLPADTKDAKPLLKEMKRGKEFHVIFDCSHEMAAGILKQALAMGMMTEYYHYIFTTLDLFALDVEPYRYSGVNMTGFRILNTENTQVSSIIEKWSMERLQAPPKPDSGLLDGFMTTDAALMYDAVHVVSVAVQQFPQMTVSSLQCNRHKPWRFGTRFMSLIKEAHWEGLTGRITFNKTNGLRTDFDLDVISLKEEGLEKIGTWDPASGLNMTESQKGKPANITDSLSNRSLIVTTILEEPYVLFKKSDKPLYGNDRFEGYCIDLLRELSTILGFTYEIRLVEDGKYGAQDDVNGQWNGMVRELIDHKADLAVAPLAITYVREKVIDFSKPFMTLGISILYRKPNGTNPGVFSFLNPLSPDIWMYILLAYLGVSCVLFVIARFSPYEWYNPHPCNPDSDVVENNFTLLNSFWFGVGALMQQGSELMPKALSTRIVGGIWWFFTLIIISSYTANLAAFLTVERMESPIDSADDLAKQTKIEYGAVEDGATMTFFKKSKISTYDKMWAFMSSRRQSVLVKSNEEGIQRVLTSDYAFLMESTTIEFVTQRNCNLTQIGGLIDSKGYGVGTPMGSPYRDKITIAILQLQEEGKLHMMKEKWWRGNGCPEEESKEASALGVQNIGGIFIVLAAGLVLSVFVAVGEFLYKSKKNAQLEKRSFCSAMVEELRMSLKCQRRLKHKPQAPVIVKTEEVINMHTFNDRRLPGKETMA
Glutamate receptor 2 (Homo sapiens, UniProt P42262), sequence (P42262 whole entry): as the sequence (P19491 whole entry) above, with T191M, A291T, G764R, P852A counted along it
Glutamate receptor ionotropic, kainate 3, sequence (P42264 whole entry): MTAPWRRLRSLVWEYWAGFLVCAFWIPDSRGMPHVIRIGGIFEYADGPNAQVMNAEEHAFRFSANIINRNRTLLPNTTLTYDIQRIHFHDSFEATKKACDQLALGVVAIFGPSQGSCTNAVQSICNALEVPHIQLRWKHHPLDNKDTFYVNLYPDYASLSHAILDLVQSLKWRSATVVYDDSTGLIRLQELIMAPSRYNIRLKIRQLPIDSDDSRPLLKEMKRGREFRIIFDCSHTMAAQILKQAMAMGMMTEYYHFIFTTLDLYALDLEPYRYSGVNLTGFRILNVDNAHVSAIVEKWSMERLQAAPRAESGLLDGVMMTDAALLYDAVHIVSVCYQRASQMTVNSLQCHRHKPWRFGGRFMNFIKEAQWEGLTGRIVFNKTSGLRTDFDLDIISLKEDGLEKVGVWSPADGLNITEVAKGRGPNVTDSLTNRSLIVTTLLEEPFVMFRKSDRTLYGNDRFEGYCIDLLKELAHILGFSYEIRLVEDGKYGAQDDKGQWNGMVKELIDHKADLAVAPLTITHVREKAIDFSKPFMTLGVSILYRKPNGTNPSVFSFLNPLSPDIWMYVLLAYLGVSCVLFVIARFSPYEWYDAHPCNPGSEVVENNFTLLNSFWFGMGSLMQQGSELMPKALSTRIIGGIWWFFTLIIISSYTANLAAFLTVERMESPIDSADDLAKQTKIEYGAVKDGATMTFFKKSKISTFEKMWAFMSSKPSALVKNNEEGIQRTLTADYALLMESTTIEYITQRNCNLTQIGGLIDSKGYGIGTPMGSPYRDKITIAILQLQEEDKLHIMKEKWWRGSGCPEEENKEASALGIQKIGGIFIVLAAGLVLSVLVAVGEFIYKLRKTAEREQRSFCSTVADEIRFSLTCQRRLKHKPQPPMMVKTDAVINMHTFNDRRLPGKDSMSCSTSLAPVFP
Glutamate receptor ionotropic, kainate 1, sequence (P22756 whole entry): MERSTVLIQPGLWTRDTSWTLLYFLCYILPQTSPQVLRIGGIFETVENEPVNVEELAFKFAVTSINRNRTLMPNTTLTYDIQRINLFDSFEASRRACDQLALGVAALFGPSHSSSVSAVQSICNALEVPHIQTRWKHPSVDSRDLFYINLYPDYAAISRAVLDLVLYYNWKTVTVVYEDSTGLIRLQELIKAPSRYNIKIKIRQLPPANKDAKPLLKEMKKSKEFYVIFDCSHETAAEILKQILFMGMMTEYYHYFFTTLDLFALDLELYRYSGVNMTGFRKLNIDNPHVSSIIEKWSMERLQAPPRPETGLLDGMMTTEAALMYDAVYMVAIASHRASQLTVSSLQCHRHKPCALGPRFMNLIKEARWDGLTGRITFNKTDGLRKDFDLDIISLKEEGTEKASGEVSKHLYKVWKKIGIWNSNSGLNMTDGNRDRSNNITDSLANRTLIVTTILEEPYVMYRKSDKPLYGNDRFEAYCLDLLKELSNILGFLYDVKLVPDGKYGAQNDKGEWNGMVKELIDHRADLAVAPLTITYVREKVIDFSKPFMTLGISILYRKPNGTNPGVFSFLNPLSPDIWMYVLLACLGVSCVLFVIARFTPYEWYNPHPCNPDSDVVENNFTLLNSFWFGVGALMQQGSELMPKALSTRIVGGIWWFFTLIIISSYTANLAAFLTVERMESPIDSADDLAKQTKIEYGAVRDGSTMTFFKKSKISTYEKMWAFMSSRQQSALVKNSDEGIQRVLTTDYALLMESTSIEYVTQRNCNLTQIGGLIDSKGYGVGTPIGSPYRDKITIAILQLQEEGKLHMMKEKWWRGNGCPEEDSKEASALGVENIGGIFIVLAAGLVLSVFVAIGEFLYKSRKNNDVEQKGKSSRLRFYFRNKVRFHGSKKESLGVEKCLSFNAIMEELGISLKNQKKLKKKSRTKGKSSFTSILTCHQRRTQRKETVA

For the compound `NC(CCc1nonc1O)C(=O)O` (stereo in doubt; (+)-15) [2-AMINO-4-(4-HYDROXY-1,2,5-OXADIAZOL-3-YL)BUTANOIC ACID (STRUCTURAL MIX)], the Ki at Glutamate receptor 2 [1] was 40 µM; in assay [2], 53 µM; in [5], more than 1000 µM; at Glutamate NMDA receptor [6] it was 73 µM; in assay [8], 41 µM. For the same compound, the results for the IC50 in assay [3] and in assay [7] were 42 µM and 1020 µM, respectively. The compound also gave a pIC50 in assay [3] of 4.37. For the same compound, the EC50 on Glutamate receptor 2 [4] was 489 µM; in assay [9], “Not Active”.
On Glutamate NMDA receptor [10], `NC(Cc1nsnc1O)C(=O)O` (racemic) returned an inhibition constant (Ki) of more than 100 µM. For the same compound, the IC50 in assay [3] is 0.12 µM.
Turning to `NC(Cc1nonc1O)C(=O)O` (single isomer, unassigned; (+)), the Imax in assay [11] came out at 0.76.
In [3], `NC(CCCc1nonc1O)C(=O)O` (racemic) [2-AMINO-5-(4-HYDROXY-1,2,5-OXADIAZOL-3-YL)PENTANOIC ACID (STRUCTURAL MIX)] registered a half-maximal inhibitory concentration (IC50) of 61 µM and a pIC50 of 4.22. This compound also yielded a Ki on Glutamate NMDA receptor [6] of 2.9 µM.
As to `NC(CCCc1nonc1O)C(=O)O` (racemic), the outcome in [12] was inactive.
As for `NC(CCCc1nonc1O)C(=O)O` (stereo in doubt; (+)-18) [2-AMINO-5-(4-HYDROXY-1,2,5-OXADIAZOL-3-YL)PENTANOIC ACID (STRUCTURAL MIX)], the Ki on Glutamate receptor 2 [1] was 20 µM; in [2], 67 µM; in assay [5], more than 1000 µM; on Glutamate NMDA receptor [6], 22 µM; in assay [8], more than 1000 µM. Moreover, the half-maximal inhibitory concentration (IC50) in assay [3] is 42 µM; in assay [7], 245 µM. In assay [3], this compound showed a negative logarithm of the IC50 (pIC50) of 4.37. Further, the results for the EC50 (at Glutamate receptor 2 [4]; in [9]) were 491 µM and “Not Active”, respectively.
Regarding `NC(CCc1nonc1O)C(=O)O` (racemic) [2-AMINO-4-(4-HYDROXY-1,2,5-OXADIAZOL-3-YL)BUTANOIC ACID (STRUCTURAL MIX)], in assay [3], the IC50 was 77 µM and the pIC50 is given as 4.12. Further, at Glutamate NMDA receptor [6], the Ki was found to be 4.9 µM.
As to `NC(CCc1nonc1O)C(=O)O` (single isomer, unassigned; (-)) [2-AMINO-4-(4-HYDROXY-1,2,5-OXADIAZOL-3-YL)BUTANOIC ACID (STRUCTURAL MIX)], the IC50 in assay [3] was more than 100 µM; in assay [7], 49 µM. Affinity at Glutamate NMDA receptor [6] was put at a Ki of 3.4 µM.
Consider `NC(CCCc1nonc1O)C(=O)O` (stereo in doubt; (-)-18) [2-AMINO-5-(4-HYDROXY-1,2,5-OXADIAZOL-3-YL)PENTANOIC ACID (STRUCTURAL MIX)], for which the IC50 in assay [3] is more than 100 µM; in assay [7], 28 µM. Also, the Ki at Glutamate NMDA receptor [6] came to 1.8 µM.
Consider `NC(Cc1nonc1O)C(=O)O` (single isomer, unassigned; (+)) [2-AMINO-3-(4-HYDROXY-1,2,5-OXADIAZOL-3-YL)PROPIONIC ACID (STRUCTURAL MIX)], for which the Ki on Glutamate receptor 2 [1] was 0.043 µM; in assay [2], 8.1 µM; in assay [5], more than 100 µM; at Glutamate NMDA receptor [6] it was 13 µM; in [8], more than 100 µM. The EC50 is 47 µM in assay [13] and 9.4 µM at Glutamate receptor 2 [4]. The compound also showed a half-maximal inhibitory concentration (IC50) in assay [3] of 0.11 µM. Moreover, in assay [3], the negative-log IC50 (pIC50) came to 6.95.
For `NC(CCc1nonc1O)C(=O)O` (racemic), the result in assay [12] was inactive.
In the case of `CN[C@H](CC(=O)O)C(=O)O` [N-METHYL-D-ASPARTIC ACID (NMDA)], the IC50 in assay [3] is more than 100 µM. The affinity at Glutamate NMDA receptor [6] corresponds to a Ki of 6.2 µM.
In [3], `NC(Cc1nonc1O)C(=O)O` (racemic) [2-AMINO-3-(4-HYDROXY-1,2,5-OXADIAZOL-3-YL)PROPIONIC ACID (STRUCTURAL MIX)] came in with a half-inhibitory concentration (IC50) of 0.17 µM and a pIC50 of 6.76. This compound also displayed a Ki at Glutamate NMDA receptor [6] of 16 µM.
Consider `C=C(C)[C@H]1CN[C@H](C(=O)O)[C@H]1CC(=O)O` [KAINIC ACID], for which, in assay [3], the half-maximal inhibitory concentration (IC50) was found to be 4 µM. For the same compound, on Glutamate NMDA receptor [6], the Ki was more than 100 µM.
The compound `Cc1onc(O)c1CC(N)C(=O)O` (racemic) [(R,S)-AMPA] returned an IC50 in assay [3] of 0.039 µM.
Regarding `NC(Cc1nonc1O)C(=O)O` (stereo in doubt; (-)-10) [2-AMINO-3-(4-HYDROXY-1,2,5-OXADIAZOL-3-YL)PROPIONIC ACID (STRUCTURAL MIX)], the inhibition constant Ki was 0.25 µM at Glutamate receptor 2 [1]; 77 µM in assay [2]; more than 100 µM in assay [5] (sf9); more than 100 µM at Glutamate NMDA receptor [6]; more than 100 µM in assay [8] (sf9). The EC50 is more than 500 µM in assay [13] and 43 µM on Glutamate receptor 2 [4]. Also, the IC50 in assay [3] was found to be 0.76 µM.
Consider `NC(C(=O)O)c1nonc1O` (racemic), for which the 50% inhibitory concentration (IC50) in [3] is more than 100 µM. The compound further gave a Ki on Glutamate NMDA receptor [6] of 6.3 µM.
